Results as given in the supplement of paper PMC10307832.

Columns and labels:
Experiment in all cases: relative viability (nuclei count vs DMSO), 5 days (fraction); higher = more cells survive
[1] = compound: CC1=C(C=CC(=C1)[N+](=O)[O-])NS(=O)(=O)C2=C(C=CC(=C2)Cl)Cl [FH535] + CS(=O)(=O)CCNCc1ccc(-c2ccc3ncnc(Nc4ccc(OCc5cccc(F)c5)c(Cl)c4)c3c2)o1 [Lapatinib] (partner 2 µM)
How it was run: (§1)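 Relative viability divides the nuclei count in treated wells by that in vehicle wells. Lung cancer cell lines were seeded in 1536-well plates, dosed by pin tool the next day, and fixed and stained after 5 days in one step with final 0.05% Triton X-100, 1% formaldehyde and 1 ug/ml Hoechst. Dosing was a single drug or a fixed anchor-drug dose plus five library-drug doses (not always all listed) in √10 steps, and values are medians of duplicate plates imaged at 4×.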

[2] = compound: CC1=C(C=CC(=C1)[N+](=O)[O-])NS(=O)(=O)C2=C(C=CC(=C2)Cl)Cl [FH535] + Nc1nc2[nH]cc(CCc3ccc(C(=O)N[C@@H](CCC(=O)O)C(=O)O)cc3)c2c(=O)[nH]1 [Pemetrexed] (partner 0.2 µM)
How it was run: as §1

[3] = compound: CC1=C(C=CC(=C1)[N+](=O)[O-])NS(=O)(=O)C2=C(C=CC(=C2)Cl)Cl [FH535] + CC(C)C[C@H](NC(=O)[C@H](Cc1ccccc1)NC(=O)c1cnccn1)B(O)O [Bortezomib] (partner 0.002 µM)
How it was run: as §1

[4] = compound: CC1=C(C=CC(=C1)[N+](=O)[O-])NS(=O)(=O)C2=C(C=CC(=C2)Cl)Cl [FH535] + CC(=O)c1c(C)c2cnc(Nc3ccc(N4CCNCC4)cn3)nc2n(C2CCCC2)c1=O [Palbociclib] (partner 0.5 µM)
How it was run: as §1

[5] = compound: CC1=C(C=CC(=C1)[N+](=O)[O-])NS(=O)(=O)C2=C(C=CC(=C2)Cl)Cl [FH535] + CS(=O)(=O)N1CCN(Cc2cc3nc(-c4cccc5[nH]ncc45)nc(N4CCOCC4)c3s2)CC1 [Pictilisib] (partner 1 µM)
How it was run: as §1

Row | Cell Line | relative viability ([1]; first compound 0.04 µM) | relative viability ([1]; first compound 0.1265 µM) | relative viability ([1]; first compound 0.4 µM) | relative viability ([1]; first compound 1.265 µM) | relative viability ([2]; first compound 0.04 µM) | relative viability ([2]; first compound 0.1265 µM) | relative viability ([2]; first compound 0.4 µM) | relative viability ([2]; first compound 1.265 µM) | relative viability ([3]; first compound 0.04 µM) | relative viability ([3]; first compound 0.1265 µM) | relative viability ([3]; first compound 0.4 µM) | relative viability ([3]; first compound 1.265 µM) | relative viability ([4]; first compound 0.04 µM) | relative viability ([4]; first compound 0.1265 µM) | relative viability ([4]; first compound 0.4 µM) | relative viability ([4]; first compound 1.265 µM) | relative viability ([5]; first compound 0.04 µM) | relative viability ([5]; first compound 0.1265 µM) | relative viability ([5]; first compound 0.4 µM) | relative viability ([5]; first compound 1.265 µM)
1 | NCI-H2126 | 0.734 | 0.679 | 0.696 | 0.676 | 0.639 | 0.659 | 0.662 | 0.536 | 1.07 | 1.1 | 0.986 | 0.879 | 0.352 | 0.329 | 0.363 | 0.322 | 0.472 | 0.497 | 0.472 | 0.425
2 | NCI-H2228 | 0.574 | 1.15 | 1.2 | 0.927 | 0.312 | 0.364 | 0.327 | 0.341 | 0.933 | 0.81 | 0.839 | 0.829 | 0.734 | 0.548 | 0.745 | 0.788 | 0.327 | 0.416 | 0.369 | 0.305
3 | NCI-H2347 | 0.979 | 0.664 | 0.971 | 0.781 | 0.523 | 0.405 | 0.43 | 0.41 | 0.843 | 1 | 1.02 | 0.627 | 0.456 | 0.342 | 0.416 | 0.397 | 0.484 | 0.591 | 0.639 | 0.726
4 | NCI-H2405 | 0.934 | 1.13 | 0.963 | 0.734 | 0.977 | 1.01 | 0.769 | 0.565 | 0.987 | 0.916 | 0.906 | 0.509 | 0.5 | 0.504 | 0.492 | 0.354 | 0.329 | 0.447 | 0.425 | 0.422
5 | NCI-H3122 | 1.01 | 0.978 | 0.999 | 0.89 | 0.199 | 0.191 | 0.188 | 0.189 | 0.979 | 0.976 | 0.989 | 0.919 | 0.169 | 0.218 | 0.195 | 0.187 | 0.583 | 0.585 | 0.57 | 0.564
6 | PC-3 [JPC-3] | 0.405 | 0.39 | 0.444 | 0.39 | 1.1 | 1.11 | 0.745 | 0.652 | 0.846 | 0.848 | 0.741 | 0.713 | 0.494 | 0.548 | 0.529 | 0.548 | 0.746 | 0.902 | 0.698 | 0.47
7 | PC-14 | 0.365 | 0.318 | 0.376 | 0.313 | 0.12 | 0.137 | 0.13 | 0.123 | 0.938 | 0.885 | 0.815 | 0.759 | 0.512 | 0.6 | 0.593 | 0.548 | 0.73 | 0.743 | 0.709 | 0.655
8 | RERF-LC-KJ | 0.916 | 0.884 | 0.824 | 0.714 | 0.466 | 0.491 | 0.469 | 0.435 | 1.11 | 1.11 | 1.11 | 0.788 | 0.992 | 1.05 | 0.957 | 0.846 | 0.49 | 0.534 | 0.478 | 0.392
9 | SK-LU-1 | 0.759 | 0.778 | 0.609 | 0.362 | 1.01 | 1.01 | 1.04 | 0.865 | 0.85 | 1.19 | 1.04 | 0.926 | 0.412 | 0.406 | 0.373 | 0.334 | 0.503 | 0.568 | 0.487 | 0.4
10 | SW 1573 | 1 | 1.19 | 1.18 | 0.98 | 0.768 | 0.745 | 0.902 | 0.755 | 0.957 | 1.12 | 1.07 | 0.862 | 0.389 | 0.428 | 0.384 | 0.298 | 0.485 | 0.612 | 0.471 | 0.465
11 | UMC-11 | 0.858 | 0.994 | 0.885 | 0.765 | 0.653 | 0.799 | 0.788 | 0.763 | 0.545 | 0.478 | 0.48 | 0.54 | 0.346 | 0.361 | 0.311 | 0.325 | 0.749 | 0.619 | 0.726 | 0.787
